Data from PMC5740067 (Scientific Reports, 2017).
Entries after “also recorded” stand apart in the source; their conditions may differ. Read-outs that look alike come from different tables or passages of the source.

Assays:
OccJ N202D [1] = target: T1, OccJ N202D (Agrobacterium tumefaciens, UniProt P0A4F8, N202D); format: binding; settings: intrinsic protein fluorescence titration; 20 °C; pH 8.0; read-out: K D (F)
T1 construct: The mature LAO expression plasmid, LAO-Q122A, OccJ-S91G and OccJ-N202D were chemically synthesized; pET-28a); host or cells: E. coli BL21

OccJ WT [2] = target: T2, OccJ WT (Agrobacterium tumefaciens, UniProt P0A4F8); test: biochemical; format: binding
T2 construct: The mature PBP OccJ (256 aa without the signal peptide) expression plasmid was obtained by cloning the occJ gene lacking the first twenty residues; hexahistidine (C); made in house; host or cells: E. coli BL21
Description: (§1) Binding of ligands to OccJ, NocT, LAO and protein mutants was monitored by autofluorescence by exciting the protein at a wavelength of 295 nm and monitoring the quenching of fluorescence emission of tryptophans at 335 nm. All experiments were performed at 20 °C in 96 wells plates (1/2 Area Plate-96F, Perkin Elmer) using Tecan Infinite M1000 reader (Tecan), in 50 mM Tris-HCl pH 8.0, 150 mM NaCl buffer with a fixed amount of proteins (1 µM) and increasing concentrations of ligand. […] The data were analysed using Origin® 7 software and fitted to the equation f = ΔFluorescencemax * abs(x)/(K D + abs(x)).

NocT WT [3] = target: T3, NocT WT (Agrobacterium fabrum, UniProt P35120); settings: fluorescence titration; octopine and nopaline; ref [6],[14]; read-out: K D (F); cited from earlier work
T3 construct: Cloning of mature OccJ, NocT-G97S, OccJ-S91G, OccJ-N202D, LAO and LAO-Q122A; made in house

OccJ S91G [4] = target: T4, OccJ S91G (Agrobacterium tumefaciens, UniProt P0A4F8, S91G); format: binding; settings: ITC, 20 °C
T4 construct: The mature LAO expression plasmid, LAO-Q122A, OccJ-S91G and OccJ-N202D were chemically synthesized; pET-28a); host or cells: E. coli BL21
Description: (§2) Isothermal titration microcalorimetry experiments were performed with an ITC200 isothermal titration calorimeter from MicroCal (GE Healthcare). The experiments were carried out at 20 °C. Protein concentration in the microcalorimeter cell (0.2 mL) varied from 20 to 150 µM. Nineteen injections of 2 µL of ligand solution (amino acids, opines and octopine derivatives) at concentration ranging from 240 µM to 1.5 mM were performed at intervals of 180 s while stirring at 500 rpm. The experimental data were fitted to theoretical titration curves with software supplied by MicroCal (ORIGIN®). This software uses the relationship between the heat generated by each injection and ΔH (enthalpy change in kcal/mol), Ka (the association binding constant in M^−1), n (the number of binding sites), total protein concentration and free and total ligand concentrations.

OccJ N202D [5] = target: T1, OccJ N202D; format: binding; settings: ITC, 20 °C
Description: as §2

LAO Q122A = target: T5, LAO Q122A (Salmonella typhimurium, UniProt P02911, Q144A); test: LAO Q122A ligand binding, ITC; parameters: species or system Salmonella enterica; settings: ITC, 20 °C
T5 construct: The mature LAO expression plasmid, LAO-Q122A, OccJ-S91G and OccJ-N202D were chemically synthesized; pET-28a); host or cells: E. coli BL21
Description: as §2

LAO WT = target: T6, LAO WT (Salmonella typhimurium, UniProt P02911); test: biochemical; format: binding, Salmonella enterica; settings: ITC, 20 °C
T6 construct: The mature LAO expression plasmid, LAO-Q122A, OccJ-S91G and OccJ-N202D were chemically synthesized; pET-28a); host or cells: E. coli BL21
Description: as §2

NocT G97S [6] = target: T7, NocT G97S (Agrobacterium fabrum, UniProt P35120, G97S); format: binding, Agrobacterium tumefaciens; settings: ITC, 20 °C
T7 construct: Cloning of mature OccJ, NocT-G97S, OccJ-S91G, OccJ-N202D, LAO and LAO-Q122A; made in house; host or cells: E. coli BL21
Description: as §2

OccJ WT [7] = target: T2, OccJ WT; test: OccJ WT ligand binding, isothermal titration microcalorimetry; settings: ITC, 20 °C
Description: as §2

NocT WT [8] = target: T3, NocT WT; settings: ITC; octopine; ref [6],[14]; read-out: K D (ITC) (converted); cited from earlier work
NocT G97S [9] = target: T7, NocT G97S; format: binding, Agrobacterium tumefaciens; settings: intrinsic protein fluorescence titration; 20 °C; pH 8.0; read-out: K D (F)
NocT G97S [10] = format: binding, Agrobacterium tumefaciens
OccJ S91G [11] = target: T4, OccJ S91G; test: OccJ S91G ligand binding, fluorescence titration; settings: intrinsic protein fluorescence titration
Description: as §1

T1 sequence (P0A4F8 21-276 N202D): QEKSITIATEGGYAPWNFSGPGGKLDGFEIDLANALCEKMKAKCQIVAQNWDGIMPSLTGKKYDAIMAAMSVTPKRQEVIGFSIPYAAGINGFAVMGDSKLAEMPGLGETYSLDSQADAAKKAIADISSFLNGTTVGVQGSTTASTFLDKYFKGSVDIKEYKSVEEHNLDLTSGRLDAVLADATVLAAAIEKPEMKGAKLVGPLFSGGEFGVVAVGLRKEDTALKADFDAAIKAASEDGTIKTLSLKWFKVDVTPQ
T7 sequence (P35120 26-283 G97S): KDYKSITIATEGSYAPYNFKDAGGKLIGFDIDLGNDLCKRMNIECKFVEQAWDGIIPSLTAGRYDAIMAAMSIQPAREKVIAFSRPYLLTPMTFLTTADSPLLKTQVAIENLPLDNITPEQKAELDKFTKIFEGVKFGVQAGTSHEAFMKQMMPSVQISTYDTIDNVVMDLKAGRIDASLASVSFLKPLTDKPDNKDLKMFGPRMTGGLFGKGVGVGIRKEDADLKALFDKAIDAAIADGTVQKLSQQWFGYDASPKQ
T4 sequence (P0A4F8 21-276 S91G): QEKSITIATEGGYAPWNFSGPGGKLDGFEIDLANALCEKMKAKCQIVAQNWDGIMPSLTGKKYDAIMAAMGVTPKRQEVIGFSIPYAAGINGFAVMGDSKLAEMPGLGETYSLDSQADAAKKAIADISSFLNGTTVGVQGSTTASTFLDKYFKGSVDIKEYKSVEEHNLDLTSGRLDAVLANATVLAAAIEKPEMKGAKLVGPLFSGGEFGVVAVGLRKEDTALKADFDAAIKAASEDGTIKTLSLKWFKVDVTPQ
T2 sequence (P0A4F8 21-276): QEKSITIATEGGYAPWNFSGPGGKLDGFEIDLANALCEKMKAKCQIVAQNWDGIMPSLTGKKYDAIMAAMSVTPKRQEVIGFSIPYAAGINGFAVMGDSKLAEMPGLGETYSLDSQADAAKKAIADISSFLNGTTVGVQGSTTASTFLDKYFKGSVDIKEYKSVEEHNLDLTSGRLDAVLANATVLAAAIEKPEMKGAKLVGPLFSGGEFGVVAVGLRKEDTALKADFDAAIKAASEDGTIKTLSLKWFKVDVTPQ
T5 sequence (P02911 23-260 Q144A): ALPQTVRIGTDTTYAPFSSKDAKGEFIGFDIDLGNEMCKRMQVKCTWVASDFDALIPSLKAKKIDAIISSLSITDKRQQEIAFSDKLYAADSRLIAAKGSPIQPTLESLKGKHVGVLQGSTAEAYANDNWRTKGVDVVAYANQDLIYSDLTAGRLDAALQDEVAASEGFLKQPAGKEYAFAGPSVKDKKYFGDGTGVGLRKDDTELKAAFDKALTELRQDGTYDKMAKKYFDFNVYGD
T3 sequence (P35120 26-283): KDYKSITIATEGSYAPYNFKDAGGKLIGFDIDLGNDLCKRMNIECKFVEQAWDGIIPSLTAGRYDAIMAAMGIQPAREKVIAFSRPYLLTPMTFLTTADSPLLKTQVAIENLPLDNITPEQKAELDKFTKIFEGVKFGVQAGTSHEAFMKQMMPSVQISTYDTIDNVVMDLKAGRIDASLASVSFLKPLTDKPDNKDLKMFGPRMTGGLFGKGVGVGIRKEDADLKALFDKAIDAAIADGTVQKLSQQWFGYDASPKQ
T6 sequence (P02911 23-260): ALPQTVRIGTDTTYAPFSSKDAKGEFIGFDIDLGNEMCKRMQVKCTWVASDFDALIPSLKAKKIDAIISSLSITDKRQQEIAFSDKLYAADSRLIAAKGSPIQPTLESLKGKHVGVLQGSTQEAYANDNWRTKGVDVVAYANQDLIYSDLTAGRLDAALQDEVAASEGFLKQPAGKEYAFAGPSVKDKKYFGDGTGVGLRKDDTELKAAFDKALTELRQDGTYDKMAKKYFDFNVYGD

C[C@@H](N[C@@H](CCCN=C(N)N)C(=O)O)C(=O)O [octopine]
Kd (OccJ N202D [1]): 0.006 ± 0.001 µM
Kd (OccJ WT [2]; fluorescence titration, read-out: apparent dissociation constant K D): 0.004 ± 0.001 µM
Kd (OccJ WT [2]; intrinsic protein fluorescence titration, 20 °C, 50 mM Tris-HCl pH 8.0, 150 mM NaCl, 1 µM protein, read-out: K D (F)): 0.004 ± 0.0001 µM
Kd (NocT WT [3]): 6.1 ± 0.7 µM
Enthalpy (ΔH) (OccJ S91G [4]): -0.726 kcal/mol
Entropic contribution (-TΔS) (OccJ S91G [4]): -5.569 kcal/mol
Entropy (ΔS) (OccJ S91G [4]): 19 cal/mol/deg
Free enthalpy (ΔG) (OccJ S91G [4]): -6.295 kcal/mol
Kd (OccJ S91G [4]): 20 µM
Enthalpy (ΔH) (OccJ N202D [5]): -4.12 kcal/mol
Entropic contribution (-TΔS) (OccJ N202D [5]): -6.345 kcal/mol
Entropy (ΔS) (OccJ N202D [5]): 21.5 cal/mol/deg
Free enthalpy (ΔG) (OccJ N202D [5]): -10.465 kcal/mol
Kd (OccJ N202D [5]): 0.016 µM
Enthalpy (ΔH) (LAO Q122A): -3.318 kcal/mol
Entropic contribution (-TΔS) (LAO Q122A): -2.673 kcal/mol
Entropy (ΔS) (LAO Q122A): 9.12 cal/mol/deg
Free enthalpy (ΔG) (LAO Q122A): -5.991 kcal/mol
Kd (LAO Q122A; read-out: K D (ITC)): 34 ± 5 µM
K D (ITC) (LAO WT): No interaction; also recorded: cannot bind
Enthalpy (ΔH) (NocT G97S [6]): 0.687 kcal/mol
Entropic contribution (-TΔS) (NocT G97S [6]): -6.42 kcal/mol
Entropy (ΔS) (NocT G97S [6]): 21.9 cal/mol/deg
Free enthalpy (ΔG) (NocT G97S [6]): -5.733 kcal/mol
Kd (NocT G97S [6]): 52 µM
Enthalpy (ΔH) (OccJ WT [7]): -4.837 kcal/mol
Entropic contribution (-TΔS) (OccJ WT [7]): -5.98 kcal/mol
Entropy (ΔS) (OccJ WT [7]): 20.4 cal/mol/deg
Free enthalpy (ΔG) (OccJ WT [7]): -10.817 kcal/mol
Kd (OccJ WT [7]): 0.009 µM
Kd (NocT WT [8]): 9.9 µM
Kd (NocT G97S [9]): 63.8 ± 13.8 µM
fold lower affinity of NocT G97S compared with the WT (NocT G97S [10]): 10 fold
fold lower affinity of OccJ-S91G than OccJ (OccJ S91G [11]): over 7,000 fold
Kd (OccJ S91G [11]; 20 °C, pH 8.0, read-out: K D (F)): 29.9 ± 3.8 µM
